Source: PMC8847695 (Frontiers in Chemistry, 2022)

How the values were obtained:
Assay type in all cases: binding
Conditions in all cases: 1 = hit, 0 = no hit
[1] = molecular target: T1, CAMK1G (1-320) (Homo sapiens, UniProt Q96NX5); experiment: STD-NMR fragment screening, CAMK1G
T1 construct: made in house; host or cells: E. coli BL21 (DE3) pLysS
Outline: (§1)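 Saturation-transfer difference NMR was run at 25°C and 700 MHz with 20 µM protein, two fragments at 1 mM each, and 10% DMSO-d6. On-resonance saturation was at 0.5–0.6 ppm and off-resonance at 40 ppm, with a 3 s Gaussian-pulse train. A hit required a difference-spectrum peak at least three times the local noise.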

[2] = molecular target: T2, IDO1 (1-435) (Homo sapiens, UniProt P14902); experiment: STD-NMR fragment screening, IDO1
T2 construct: His-tag of pET15b with TEV site (thrombin site replaced) (cleaved yes); made in house; host or cells: E. coli Rosetta 2 (DE3) pLysS
Outline: as §1

[3] = molecular target: T3, DOT1L (1-416) (Homo sapiens, UniProt Q8TEK3); experiment: STD-NMR fragment screening, DOT1L
T3 construct: made in house; host or cells: E. coli BL21 (DE3) pLysS
Outline: as §1

[4] = molecular target: AAK1 (121-471) (Homo sapiens, UniProt Q2M2I8); experiment: STD-NMR fragment screening, AAK1
Outline: as §1

T2 sequence (P14902 whole entry, the tested form may be a part): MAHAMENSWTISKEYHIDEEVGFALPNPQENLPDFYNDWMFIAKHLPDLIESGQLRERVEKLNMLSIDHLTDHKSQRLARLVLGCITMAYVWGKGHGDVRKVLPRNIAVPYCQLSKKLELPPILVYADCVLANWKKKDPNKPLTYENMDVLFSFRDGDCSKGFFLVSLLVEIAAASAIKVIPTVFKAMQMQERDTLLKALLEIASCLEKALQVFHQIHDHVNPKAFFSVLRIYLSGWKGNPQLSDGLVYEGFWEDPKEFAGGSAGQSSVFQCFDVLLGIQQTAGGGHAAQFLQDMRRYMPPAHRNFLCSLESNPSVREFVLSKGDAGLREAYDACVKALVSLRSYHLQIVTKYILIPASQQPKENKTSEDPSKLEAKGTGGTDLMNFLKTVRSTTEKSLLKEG
T1 sequence (Q96NX5 1-320): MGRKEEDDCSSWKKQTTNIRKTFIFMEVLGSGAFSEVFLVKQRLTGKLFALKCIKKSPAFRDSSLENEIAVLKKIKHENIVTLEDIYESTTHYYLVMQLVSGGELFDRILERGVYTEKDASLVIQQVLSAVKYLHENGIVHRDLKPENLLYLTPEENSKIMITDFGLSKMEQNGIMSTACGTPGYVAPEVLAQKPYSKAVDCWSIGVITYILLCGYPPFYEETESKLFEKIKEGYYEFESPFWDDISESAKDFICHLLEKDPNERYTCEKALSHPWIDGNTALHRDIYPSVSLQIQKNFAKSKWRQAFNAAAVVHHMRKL
Sequence of AAK1 (121-471) (Q2M2I8 46-315 limits assumed): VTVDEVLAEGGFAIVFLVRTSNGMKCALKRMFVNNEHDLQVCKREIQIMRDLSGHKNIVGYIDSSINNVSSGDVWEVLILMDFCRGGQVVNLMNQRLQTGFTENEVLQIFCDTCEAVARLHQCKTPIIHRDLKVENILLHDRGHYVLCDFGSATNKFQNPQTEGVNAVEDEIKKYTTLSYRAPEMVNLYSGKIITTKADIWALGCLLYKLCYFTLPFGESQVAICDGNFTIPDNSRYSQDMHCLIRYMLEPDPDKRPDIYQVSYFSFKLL
T3 sequence (Q8TEK3 1-416): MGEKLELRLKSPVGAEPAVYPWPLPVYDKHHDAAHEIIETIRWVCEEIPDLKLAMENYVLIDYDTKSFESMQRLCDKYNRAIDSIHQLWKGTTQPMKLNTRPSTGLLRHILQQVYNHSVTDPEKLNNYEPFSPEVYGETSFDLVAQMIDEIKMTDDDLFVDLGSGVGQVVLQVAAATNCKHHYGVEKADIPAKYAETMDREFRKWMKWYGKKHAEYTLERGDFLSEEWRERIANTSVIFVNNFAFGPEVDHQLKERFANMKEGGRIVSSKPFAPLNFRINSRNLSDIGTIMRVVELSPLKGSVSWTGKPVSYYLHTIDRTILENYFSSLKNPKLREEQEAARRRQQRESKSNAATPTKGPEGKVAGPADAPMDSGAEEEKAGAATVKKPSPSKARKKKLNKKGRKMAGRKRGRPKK

| Compound | CAMK1G (STD-NMR hit flag) [1] | IDO1 (STD-NMR hit flag) [2] | DOT1L (STD-NMR hit flag) [3] | AAK1 (STD-NMR hit flag) [4] |
| --- | --- | --- | --- | --- |
| N#Cc1ccc(O)c(Cl)c1 [Fragment B02291257] | 0 | 0 | 0 | 1 |
| Clc1ncccn1 [Fragment B02291224] | 0 | 0 | 0 | 0 |
| CC(=O)Nc1ccc(Cl)c(C(=O)O)n1 [Fragment B02297416] | 0 | 0 | 0 | 0 |
| Oc1ccc(Cl)cc1/C=C/C12CN3CN(CN(C3)C1)C2 [Fragment B02291153] | 0 | 0 | 0 | 0 |
| O=C(O)c1cnccc1Br [Fragment B02297403] | 0 | 0 | 0 | 0 |
| O=C(O)c1cc(Cl)nnc1Cl [Fragment B02290470] | 0 | 0 | 0 | 0 |
| Nc1cc(Cl)cc([N+](=O)[O-])c1O [Fragment B02291244] | 0 | 0 | 0 | 0 |
| Clc1cnc(Cl)nc1 [Fragment B02291267] | 0 | 0 | 0 | 0 |
| NC(CCO)c1ccc(Cl)cc1Cl (centres unmarked) [Fragment B02289594] | 0 | 0 | 0 | 0 |
| Cn1cc(Br)c(N)n1 [Fragment B02297415] | 0 | 0 | 0 | 0 |
| COc1ccc(CN)c(Cl)c1 [Fragment B02290088] | 0 | 0 | 0 | 0 |
| O=C(O)c1ccc(Cl)o1 [Fragment B02290466] | 0 | 0 | 0 | 0 |
| O=C(O)CCc1nc(Br)n[nH]1 [Fragment B02290119] | 0 | 0 | 0 | 0 |
| Nc1nc(Cl)c(NC=O)c(Cl)n1 [Fragment B02297412] | 0 | 0 | 0 | 0 |
| O=C(O)c1cc(Br)c[nH]1 [Fragment B02291264] | 0 | 0 | 0 | 0 |
| O=c1[nH]cc(Cl)cc1[N+](=O)[O-] [Fragment B02290460] | 1 | 0 | 0 | 0 |
| NCCCn1cc(Cl)cn1 [Fragment B02290117] | 0 | 0 | 0 | 0 |
| Cc1ccc(C(N)=O)c(Cl)n1 [Fragment B02291227] | 0 | 0 | 0 | 1 |
| O=C(c1ccc(Cl)cc1)N1CCOCC1 [Fragment B02297400] | 0 | 0 | 0 | 0 |
| Brc1csc(CN2CCNCC2)c1 [Fragment B02290122] | 0 | 0 | 0 | 0 |
| Nc1c(Cl)ccc2nonc12 [Fragment B02291217] | 0 | 0 | 0 | 1 |
| Brc1cncnc1 [Fragment B02289809] | 0 | 0 | 0 | 0 |
| O=C(O)c1sccc1Cl [Fragment B02297398] | 0 | 0 | 0 | 0 |
| NC(=O)c1nc(Cl)n[nH]1 [Fragment B02290118] | 0 | 0 | 0 | 0 |
| Cc1onc(N)c1I [Fragment B02290521] | 1 | 1 | 0 | 1 |
| OB(O)c1ccc(Cl)nc1F [Fragment B02289599] | 0 | 0 | 0 | 0 |
| N#Cc1ccnc(Cl)c1 [Fragment B02291271] | 0 | 0 | 0 | 0 |
| O=C1CCS(=O)(=O)c2ccc(Cl)cc21 [Fragment B02291253] | 1 | 0 | 0 | 0 |
| Clc1cccc2nnnn12 [Fragment B02291229] | 0 | 0 | 0 | 0 |
